Like-named read-outs stand apart in the source and are kept apart here.
Assays:
[1] = test system: bovine capillary endothelial (BCE) cells; test: Endothelial cell proliferation assay (bFGF-stimulated); type: cell-based
Procedure: Male Sprague-Dawley rats weighing 200 g were used as an experimental animal. Arsenolite (solid As4O6) was dissolved in water until it becomes a 1 mM of stock solution, and kept at the room temperature. Bovine capillary endothelial (BCE) cells were provided by Dr. Tae-Hee Lee (Lee, T. H., Rhim, T., and Kim, S. S. (1998). Prothromb inkringle-2 domain has a growth inhibitory activity against basic fibroblast growth factor-stimulated capillary endothelial cells. J. Biol. Chem 273, 28805-28812). BCE cells were preserved in Dulbecco's modified Eagle's medium (DMEM) supplemented with 10% heat-inactivated bovine calf serum (BCS; Hyclone Laboratories, Logan, Utah) L-glutamine (2 mM), penicillin (110 units/ml), streptomycin (100 μg/ml) and 1.5 ng/ml recombinant human basic fibroblast growth factor (bFGF; R&D Systems, Minneapolis, Minn.). Then, the cells were incubated at 37° C. under 10% CO2 condition. The cells between 10-15 passages were employed in this experiment.
Endothelial proliferation assay was performed as described by Cao et al. (Cao, Y., A., An, S. S. A., Ji, R. W., Davodson, D., Cao, Y., and Llinas, M. (1997) Kringle 5 of plasminogen is a novel inhibitor for endothelial cell growth. J. Biol. Chem. 271, 22924-22928). […] After 72 hours of incubation, the cells were trypsinized and counted using a hemocytometer. […]

[2] = test system: bovine capillary endothelial (BCE) cells; test: Chemotaxis assay in modified Boyden chambers (bFGF as chemoattractant); type: cell-based
Procedure: Chemotaxis assays were performed using modified Boyden chambers, which is equipped with polycarbonate nucleopore membrane (Boyden Chamber, Corning, Coring, N.Y.) described in Journal (Veronique Rigot, Maxime Lehmann, Frederic andre, Noucha Daemi, Jacques Marvaldi and Jose Luis: Integrin ligation and PKC activation are required for migration of colon carcinoma cells. Journal of cell science 111, 3119-3129 (1998)). Pre-coated filters (6.5 mm in diameter, 8 μm pore-size, Matrigel 100 μg/cm^2) were re-hydrated with 250 μl of medium, and 1×10^5 cells in 200 μl medium with or without arsenolite (at concentrations of 10 nM, 20 nM, 50 nM, 100 nM and 200 nM) in triple respectively were seeded into the upper part of each chamber, whereas the lower compartment was filled with 200 μl of serum free DMEM supplemented with 0.1% BSA and with (positive control) or without (negative control) 10 ng/ml bFGF as a chemoattractant. After the cells were incubated at 37° C. for 72 hours, non-migrated cells on the upper surface of the filter were wiped with a cotton swab, and migrated cells on the lower surface of the filter were fixed and stained with 0.125% Cumassie Blue in a mixture of methanol: acetic acid: water at the ratio of 45:10:45 by volume. Chemotaxis was determined by counting cells in five microscopic fields per well, and the extent of migration is expressed as an average number of cells per each microscopic field.

[3] = test system: BCE cells; test: Tube formation assay in 3-D fibrin gel culture; type: cell-based, bovine; details: 100 nM, bFGF 10 ng/ml, 48 or 96 hours
Procedure: To investigate the effect of arsenolite on the maturation of angiogenesis, particularly, tubular structure formation of capillary endothelial cells, BCE cells were cultured using three dimensional cultures on the fibrin gel.
Fibrin gels were prepared by following a reported procedure (Bastaki M, Nelli E E, Dell'Era P, Rusnati M, Molinari-Tosatti M P, Parolini S, Auerbach R, Ruco L P, Possati L, Presta M, Basic fibrolast growth factor-induced angiogenic phenotype in mouse endothelium. A study of aortic and microvascular endothelial cell lines. Arterioscler Thromb Vasc Bio March 1997; 17(3): 454-64). Briefly, 2.5 mg/ml of fibrinogen (Calbiochem, San Diego, Calif.) was dissolved in DMEM and cultured BCE cells were added to a final concentration of 10^5 cells/ml, and clotting was then initiated by addition of thrombin (0.5 unit/ml). The mixture was immediately transferred into 24-well plates and allowed to form gel for 5 minutes at 37° C. Following get formation, 0.5 ml of medium with or without bFGF (10 ng/ml) and arsenolite (100 nM) per well were added. After 48 or 96 hours, tube formation was examined under inverted microscopy.

[4] = test system: bFGF-induced rat corneal neovascularization; test: Corneal micropocket angiogenesis assay; type: in vivo, Sprague Dawley rat; details: oral; for bFGF-induced corneal neovascularization: 50 mg/kg/day for 7 days
Procedure: To further investigate the antiangiogenic activity of arsenolite in vivo, the inhibitory effect of systematically administered arsenolite on bFGF-induced neovascularization was studied. The corneal micropocket assay was performed by slight modification of a reported procedure (Polverim P J, Bouck N P, Rastinejad F. Assay and purification of naturally occurring inhibitor of angiogenesis, Methods Enzymol. 1991; 198: 440-450). That is, rats were anesthetized with ketamine. A corneal pocket was made by inserting a cataract knife, with the pocket's base 1-1.5 mm from the limbus. Pellets were made by mixing 30 μl of saline containing 2 μg of recombinant bFGF (R&D Systems, Minneapolis, Minn. U.S.A.) with 300 μg of sucralfate (Sigma, St. Louis, Mo., U.S.A.); this suspension was added to 30 μl of 12% (wt/vol) poly (2-hydroxyethyl methacylate) (Sigma, St. Louis, Mo., U.S.A.) in ethanol. Aliquots of this mixture were then pined onto Teflon pegs and allowed to dry producing approximately 17 pellets so that each pellet contains approximately 100 ng of bFGF. A pellet was implanted into corneal micropockets of each eye of an anesthetized male Sprague Dawley rat, followed by a single topical application of erythromycin ointment on the surface of the cornea. The animals were fed daily from the day of implantation by gastric lavage with 50 mg/kg of arsenolite powder for the treatment group, and the same foods and water without arsenolite for the control group. The corneal neovascularization in both eyes of all animals were examined daily with a slit lamp and the angiogenic responses were evaluated on day 7. The area of conical neovascularization was determined by measuring with a reticule the vessel length (L) from the limbus and the number of clock hours (C) of limbus involved as previously reported (D'Amato R I, Loughnan M S, Flynn E, Foulkman J, Thalidomide is an inhibitor of angiogenesis. Proc Natl Acad Sci USA Apr. 26, 1994; 91(9):4082-5). A formula was used to determine the area of a circular band segment: C/12×3.1416[r^2−(rL)^2], where r=5 mm, the measured radius of rat cornea.

[5] = Tolerability of treated rats in the corneal micropocket study; type: in vivo, Sprague Dawley rat; details: oral, 50 mg/kg/day for 7 days
Procedure: To further investigate the antiangiogenic activity of arsenolite in vivo, the inhibitory effect of systematically administered arsenolite on bFGF-induced neovascularization was studied. The corneal micropocket assay was performed by slight modification of a reported procedure (Polverim P J, Bouck N P, Rastinejad F. Assay and purification of naturally occurring inhibitor of angiogenesis, Methods Enzymol. 1991; 198: 440-450). That is, rats were anesthetized with ketamine. A corneal pocket was made by inserting a cataract knife, with the pocket's base 1-1.5 mm from the limbus. […] The corneal neovascularization in both eyes of all animals were examined daily with a slit lamp and the angiogenic responses were evaluated on day 7. The area of conical neovascularization was determined by measuring with a reticule the vessel length (L) from the limbus and the number of clock hours (C) of limbus involved as previously reported (D'Amato R I, Loughnan M S, Flynn E, Foulkman J, Thalidomide is an inhibitor of angiogenesis. Proc Natl Acad Sci USA Apr. 26, 1994; 91(9):4082-5). A formula was used to determine the area of a circular band segment: C/12×3.1416[r^2−(rL)^2], where r=5 mm, the measured radius of rat cornea. […]

[6] = 28-day oral administration toxicity in rat; type: in vivo, Sprague Dawley rat
[7] = oral administration; cited from earlier work

Row | Molecule | IC50 ([1]; 3 ng/ml bFGF, 72 hours incubation, cell count, read-out: inhibition of BCE cell proliferation, IC50) [nM] | cell morphological changes associated with apoptotic endothelial cells (detachment, rounding, fragmentation) ([1]; after a 3-day incubation, 10 to 200 nM) | IC50 ([2]; 10 ng/ml bFGF, 72 hours, read-out: inhibition of bFGF-induced invasiveness (chemotaxis), IC50) [nM] | inhibition of bFGF-induced invasiveness (chemotaxis) ([2]; at 100 nM, 10 ng/ml bFGF, 72 hours) [%] | cell morphological changes associated with apoptotic endothelial cells (detachment, rounding, fragmentation) ([2]; chemotaxis assay, 10 to 200 nM) | generation of tubes by BCE cells [3] | bFGF-induced corneal neovascularization [4] | bFGF-induced corneal neovascularization ([4]; listed as angiogenesis inhibitor of the present invention) | density of corneal vessels compared with control animals ([4]; 50 mg/kg/day, day 7) | inhibition of clock hours of corneal circumferential neovascularization ([4]; 50 mg/kg/day, day 7) | inhibition of vessel length of corneal neovascularization ([4]; 50 mg/kg/day, day 7) | suppression of area of neovascularization ([4]; 50 mg/kg/day, day 7, area calculated from length and clock hours) | weight loss or unusual behavior over the course of the treatment [5] | side effect ([6]; oral 1 mg/kg for 28 days) | side effect ([6]; oral 10 mg/kg for 28 days) | histological alterations in kidney ([6]; oral 100 mg/kg for 28 days) | side effect on gastrointestinal and liver ([6]; oral 100 mg/kg for 28 days) | side effect on gastrointestinal and liver [7]
1 | O1[As]2O[As]3O[As]1O[As](O2)O3 [arsenolite, Tetraarsenic oxide] | 99 | No distinct cell morphological changes | 48 | 83.4 | none of distinct cell morphological changes | reduced | significantly inhibited | noticeably suppressed | markedly reduced | more than 60% | more than 60% | approximately 90% | did not experience weight loss or unusual behavior | none of side effect was observed | none of side effect was observed | only minor histological alterations was observed in kidney | no side affect on gastrointestinal and liver | –
2 | arsenic trioxide | – | – | – | – | – | – | – | – | – | – | – | – | – | – | – | – | – | caused serious side effect on gastrointestinal and liver

— US6703049B2, “Angiogenesis inhibitor” (priority 2000, dated 2004)
